Consider eleven molecules from patent US20030074682A1, “Isolation, characterization, and use of a novel teleost potassium channel” (priority 2001, published 2003).

Read-outs that look alike come from different tables or passages of the source.

The test system of one data set is zebrafish larvae. The following applies: for "real" arrhythmia (atrium and ventricle beating very irregularly): bathing 6 hours; for induction of 2:1 atrioventricular block (atrium beats twice while the ventricle beats once): wild-type larvae bathed in drug, terfenadine 10 μM, astemizol 1 μM, diphenhydramine 100 μM, haloperidol 2 μM, droperidol 50 μM, thioridazin 10 μM, pimozide 0.5 μM, cisapride 5 μM; for arrest of the atrial and ventricular beat: 1 hour incubation. The protocol: About 50 zebrafish larvae were incubated for 2-7 d at 22-28° C. in petri dishes filled with 30 ml embryo medium.
At the day of the experiment 10 larvae were transferred to small petri dishes filled with 10 ml embryo medium, 0.5 ml MESAB solution (0.2% ethyl-m-aminobenzoate methane-sulfonate+1% Na2HPO4×2H2O, pH 7.2) and 10 μl of the respective drug (or +10 μl of a second drug) added from a 1000-fold stock solution prepared with DMSO, these three components were previously mixed in 50 ml plastic tubes (controls only receive 10 or 20 μl DMSO).
At certain time points the contractility of the heart and blood flow was monitored, and the heart rate was determined by counting the heart beat with the aid of a stereo-microscope.
In order to evaluate if zebrafish is a suitable model organism to study drug-induced QT-prolongation we investigated the effect of known QT-prolonging medicaments on the heart beat rate of zebrafish larvae. Compounds were added to the media in which the larvae were bathed and the heart beat rate was recorded by microscopy.

For data set [1], the target named is rapidly activating delayed rectifier current K^+ current IKr (Homo sapiens, UniProt Q12809). Particulars: cited from earlier work.
Sequence of rapidly activating delayed rectifier current K^+ current IKr (Q12809 whole entry): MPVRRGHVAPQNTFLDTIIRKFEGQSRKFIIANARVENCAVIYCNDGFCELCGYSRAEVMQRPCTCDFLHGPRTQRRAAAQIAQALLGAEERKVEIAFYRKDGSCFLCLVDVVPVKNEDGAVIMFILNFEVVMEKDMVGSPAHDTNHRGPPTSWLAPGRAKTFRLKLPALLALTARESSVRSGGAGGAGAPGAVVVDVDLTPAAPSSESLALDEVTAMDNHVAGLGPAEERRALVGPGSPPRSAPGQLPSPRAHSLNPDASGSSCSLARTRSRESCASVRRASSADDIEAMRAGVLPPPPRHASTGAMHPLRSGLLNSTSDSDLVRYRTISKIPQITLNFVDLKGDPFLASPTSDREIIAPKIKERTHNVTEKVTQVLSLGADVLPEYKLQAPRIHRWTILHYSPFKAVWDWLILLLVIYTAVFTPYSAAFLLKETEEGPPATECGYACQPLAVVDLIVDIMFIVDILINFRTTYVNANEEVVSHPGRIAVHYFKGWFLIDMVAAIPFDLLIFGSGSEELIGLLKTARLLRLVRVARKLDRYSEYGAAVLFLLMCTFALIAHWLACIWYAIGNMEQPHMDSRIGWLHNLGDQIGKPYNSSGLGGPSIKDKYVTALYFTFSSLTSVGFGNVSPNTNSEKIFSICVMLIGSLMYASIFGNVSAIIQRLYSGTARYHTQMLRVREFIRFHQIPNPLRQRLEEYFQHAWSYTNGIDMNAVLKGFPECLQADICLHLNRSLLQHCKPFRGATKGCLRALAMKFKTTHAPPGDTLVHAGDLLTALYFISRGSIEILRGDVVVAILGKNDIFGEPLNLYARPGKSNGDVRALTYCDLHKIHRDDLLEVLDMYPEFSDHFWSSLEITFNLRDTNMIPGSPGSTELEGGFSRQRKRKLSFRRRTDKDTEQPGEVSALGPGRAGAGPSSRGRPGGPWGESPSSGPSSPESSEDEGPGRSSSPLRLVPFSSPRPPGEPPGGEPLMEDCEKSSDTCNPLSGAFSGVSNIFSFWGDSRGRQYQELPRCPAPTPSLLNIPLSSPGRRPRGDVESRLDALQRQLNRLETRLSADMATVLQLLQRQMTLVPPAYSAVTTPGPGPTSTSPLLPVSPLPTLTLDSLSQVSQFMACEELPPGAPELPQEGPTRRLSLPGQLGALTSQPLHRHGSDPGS
The subject of another data set is ZERG. Nature of the data set: Antisense ZERG-knockdown: PMO injected into yolk of zebrafish embryos at the 1-4-cell stage, heart function and morphology scored. It counts as in vivo. An excerpt:
In one embodiment, preferred PMOs comprise a sequence complementary to contiguous nucleotides within nucleotides 1-150 of SEQ ID NO:1; an exemplary PMO sequence is presented in SEQ ID NO:3. As further detailed in the Examples, we generated an antisense PMO corresponding to the first 24 nucleotides of the ZERG coding sequence, as presented in SEQ ID NO:3, and injected these into the yolk of zebrafish embryos at the 1-4 cell stage, according to standard protocols. […] Thus, antisense PMOs may be used to knockdown the ZERG protein, and to phenocopy the breakdance mutant, as well as QT-prolonging drug-treated larvae.
24-mer antisense PMOs targeting the 5′ prime region of ZERG (SEQ ID NO:3; start 0-24: GACATGTCCGCGGCGCACGGGCAT) were injected at the 1-4-cell stage into the yolk of zebrafish embryos according to published methods (Nasevicius and Ekker, 2000). The PMO was obtained from AVI Biopharma (Corvallis, Oreg.) and was injected at 3, 6 and 9 ng per embryo, we used 50 embroys per concentration. The experiment was repeated five times. Heart function and morphological anaylsis of larvae were scored one to 5 d later. Controls included the injection of only the injection buffer.

The mark [2] stands for this setting: cardiac myocytes, electrophysiology.
[3] abbreviates: 6 ng PMO per embryo, 2 days post-fertilization.

As to `COc1ccc(CCN2CCC(Nc3nc4ccccc4n3Cc3ccc(F)cc3)CC2)cc1` [astemizole], the “incubation time until 2:1 heart beat occurred” value with zebrafish larvae (100 nM) is 6 h. Also, the “"real" arrhythmia (atrium and ventricle beating very irregularly)” value (from here on “"real" arrhythmia”) in the data set on zebrafish larvae (200 nM) is given as “arrhythmia occurred”. Moreover, in the data set on zebrafish larvae, the “induction of 2:1 atrioventricular block (atrium beats twice while the ventricle beats once)” value (“induction of 2:1 atrioventricular block” for short) is on record as “induced a 2:1 atrioventricular block”.
As for `COc1cc(N)c(Cl)cc1C(=O)NC1CCN(CCCOc2ccc(F)cc2)CC1OC` (stereo not shown) [cisapride], in the data set on zebrafish larvae (10 μM), the “"real" arrhythmia” value is “arrhythmia occurred”. In the data set on zebrafish larvae (25 μM), the “arrest of the atrial and ventricular beat” value was “arrest of the atrial and ventricular beat”. In addition, the “induction of 2:1 atrioventricular block” value in the data set with zebrafish larvae is reported as “induced a 2:1 atrioventricular block”. Moreover, in data set [1] (setting [2]), the “block of IKr” value is reported as “block”.
`CN(C)CCOC(c1ccccc1)c1ccccc1` [diphenhydramine]: in the data set on zebrafish larvae, the “induction of 2:1 atrioventricular block” value is “induced a 2:1 atrioventricular block”.
Turning to `O=C(CCCN1CC=C(n2c(=O)[nH]c3ccccc32)CC1)c1ccc(F)cc1` [droperidol], in the data set on zebrafish larvae, the “induction of 2:1 atrioventricular block” value was “induced a 2:1 atrioventricular block”.
Take `NC1=NCC2c3ccccc3Cc3ccccc3N12` (stereo not shown) [epinastine]: the “effect on heart beat rate” value in the data set with zebrafish larvae (up to 250 μM) is listed as “did not affect heart beat rate”.
Take `O=C(CCCN1CCC(O)(c2ccc(Cl)cc2)CC1)c1ccc(F)cc1` [haloperidol]: the “"real" arrhythmia” value with zebrafish larvae (10 μM) is reported as “arrhythmia occurred”. Besides, in the data set on zebrafish larvae, the “induction of 2:1 atrioventricular block” value is “induced a 2:1 atrioventricular block”. Also, the “block of IKr” value in data set [1] was “block”.
In the case of `O=c1[nH]c2ccccc2n1C1CCN(CCCC(c2ccc(F)cc2)c2ccc(F)cc2)CC1` [pimozide], the “incubation time until 2:1 heart beat occurred” value with zebrafish larvae (200 nM) stood at 3 h. In addition, in the data set on zebrafish larvae (10 μM), the “arrest of the atrial and ventricular beat” value is “arrest of the atrial and ventricular beat”. Also, the “induction of 2:1 atrioventricular block” value in the data set with zebrafish larvae is “induced a 2:1 atrioventricular block”. Besides, in data set [1], the “block of IKr” value is on record as “block”.
Turning to `CC(C)NCC(O)c1ccc(NS(C)(=O)=O)cc1` (stereo not shown) [sotalol], the “block of IKr” value in data set [1] (setting [2]) was “block”.
In the case of `CC(C)(C)c1ccc(C(O)CCCN2CCC(C(O)(c3ccccc3)c3ccccc3)CC2)cc1` (stereo not shown) [terfenadine], the “induction of 2:1 atrioventricular block” value with zebrafish larvae is “induced a 2:1 atrioventricular block”.
Consider `CSc1ccc2c(c1)N(CCC1CCCCN1C)c1ccccc1S2` (stereo not shown) [thioridazine], for which, in the data set with zebrafish larvae (10 μM), the “"real" arrhythmia” value was “arrhythmia occurred”. Moreover, the “induction of 2:1 atrioventricular block” value with zebrafish larvae is “induced a 2:1 atrioventricular block”.
Take “PMO: 24-mer antisense PMO targeting the 5′ region of ZERG (SEQ ID NO:3): GACATGTCCGCGGCGCACGGGCAT (antisense GACATGTCCGCGGCGCACGGGCAT; all phosphorodiamidate morpholino (PMO))”: in the data set on ZERG (3 ng PMO per embryo), the larvae appearing wild-type entry is recorded as “approximately 5%”, the “larvae showing a slight bradycardia” value is “approximately 81%” and the “larvae showing the 2:1 phenotype” value is “approximately 18%”. For the same molecule, the “bradycardia and other visible abnormalities” value in the data set on ZERG (6 ng PMO per embryo) is “All larvae showed a slight bradycardia and no other visible abnormalities”. Also, in the data set with ZERG (setting [3]), the “embryos showing irregular arrhythmia, atrial beat rate strongly reduced and uncoordinated” value turned out to be 28%; the “embryos showing the 2:1 heart beat” value amounted to 67%. The “larvae with a 2:1 heart beat” value in the data set on ZERG (6 ng PMO per embryo, day 3) worked out at 10%. Also, the “phenotype compared with wildtype” value in the data set with ZERG (6 ng PMO per embryo, day 5) is reported as “all larvae were indistinguishable from wildtype larvae”. In addition, in the data set on ZERG (9 ng PMO per embryo), the “day of death after strong necrosis beginning with day 4” value is approximately 6 days; the heart morphology result is “changed to a pattern known for dilative cardiomyopathy”; the “larvae with strongly reduced heart beat rate and contractility, both chambers beating 1:1, circulation strongly reduced or absent” value was 90%. Further, the “edema and blood accumulation” value in the data set on ZERG (9 ng PMO per embryo, day 2) is “heart edema and blood accumulated on the yolk sac”. Also, the “PMO-injected larvae displaying the 2:1 phenotype” value with ZERG (injected into yolk at the 1-4 cell stage, dose not given) is “About 90%”.
